Structures can show the parent of a compound that is named as a salt. Where two headings read alike, the source gives them in different places.
Experiments:
SH-SY5Y cells = assay: cells; conditions: for EC50: Homo sapiens, read-out: EC50, concentration of compound to reduce p-tau cytotoxicity by 50%, SH-SY5Y, 0.8 µM p-tau
Experimental: (see below). […] PI is excluded by living cells, but diffuses into dead cells where it binds nucleic acid and emits fluorescence. FDA/PI differential staining thus provides a quantitative assessment of cellular viability. The blue curves in Fig. 4a,b depict the cellular viability after treatment with 0–0.8 µM of p-tau.
P-tau (without pre-aggregation) and compounds were added together to cells. Cell viability was quantified by FDA and PI differential staining 24 h later. […] Cellular viability was characterized as above and plotted against the compound concentration. Trend lines in panels (a)–(c) were obtained with the dose response curve fitting function of the software Origin (Origin Pro 8, OriginLab Corporation, Northampton, MA, USA). (d) Representative images of apoptotic cells after treatment of p-tau. SH-SY5Y cells were treated with 0.6 µM of p-tau for 12 h before harvesting for annexin V and PI staining. […] The percentage of apoptotic SH-SY5Y cells was quantified by annexin V and PI double staining of cells receiving 12 h of the indicated treatment under each column in the graph. Error bars are standard deviations; n = 3.
SH-SY5Y cells were treated with 0–0.6 µM of p-tau in conjunction with varying doses of nitrazepam, prazepam or devazepide. […] The red dotted lines indicate 50% viability. Curve fitting was done with the dose–response fitting function of the software Origin (version 8, OriginLab Inc.). The number in parentheses represents the concentration (in µM) of the indicated compound.
(§1) Cell viability assays were tested according to reference[60] with modifications. PTAIs were typically added to cells along with (Fig. 4) or after p-tau was added to cells (Fig. 5). For PTAEs, 10 × concentration of p-tau and the test compounds were assembled for pre-aggregation (without heparin or ThS) for 48 h before adding 10 µl to 100 µl of cells in 96-well plates. Twenty-four or 48 h after the addition of protein/compound, cells were trypsinized and transferred to microcentrifuge tubes, and pelleted at 1000 × g for 5 min at room temperature for FDA, PI, annexin V, and ThS staining. For PI/ThS double staining, cell pellets were resuspended in 20 mM Tris, pH7.4 buffer and incubated with 100 µM ThS for 5 min at room temperature. 5-µg/ml propidium iodide was then added to cell suspension for observation under a microscope.
Supplemental Figure 2. […] SH-SY5Y cells were treated with the indicated concentrations p-tau and compounds (in µM) for 20 hours before FDA/PI differential staining and microscopic quantification. […] 0.2 or 0.4 µM of p-tau and 30 µM of each compound were pre-incubated in aggregation reactions for 24 hours before the 20-hr cell treatment and cytotoxicity quantification. FDA and PI dual staining was performed to measure cellular viability. SH-SY5Y cells Compounds in panel (a) were added to cells along with p-tau without pre-incubation.

1N4R p-tau = tested on: T1, 1N4R p-tau; assay: p-tau aggregation modulator screen of 1280-compound library (ThS fluorescence net change over 16 h); type: biochemical; set-up: key to PTAI>3SD: *: PTAI>3SD; conditions: for PTAI>3SD: flag: p-tau aggregation inhibitor, ThS net change more than 3 SD from mean; for ThS net change: library screen, ThS fluorescence net change over 16 h with p-tau
T1 construct: made in house; host or cells: E. coli (PIMAX system)

[1] = set-up: method as in PMID 29401722; conditions: cited from earlier work
p-tau = molecular target: T2, p-tau (Homo sapiens, UniProt P10636); assay: p-tau aggregation assay, dose response (ThS fluorescence, inducer-free); type: biochemical; conditions: for EC50 / effect on p-tau aggregation (16-h net change of ThS fluorescence): 6 µM p-tau; for EC50: ThS fluorescence; for effect on p-tau aggregation (16-h net change of ThS fluorescence): 6.25-150 µM benzodiazepine
T2 construct: made in house; host or cells: E. coli (PIMAX system)
T2 sequence (P10636 1-412 isoform P10636-7): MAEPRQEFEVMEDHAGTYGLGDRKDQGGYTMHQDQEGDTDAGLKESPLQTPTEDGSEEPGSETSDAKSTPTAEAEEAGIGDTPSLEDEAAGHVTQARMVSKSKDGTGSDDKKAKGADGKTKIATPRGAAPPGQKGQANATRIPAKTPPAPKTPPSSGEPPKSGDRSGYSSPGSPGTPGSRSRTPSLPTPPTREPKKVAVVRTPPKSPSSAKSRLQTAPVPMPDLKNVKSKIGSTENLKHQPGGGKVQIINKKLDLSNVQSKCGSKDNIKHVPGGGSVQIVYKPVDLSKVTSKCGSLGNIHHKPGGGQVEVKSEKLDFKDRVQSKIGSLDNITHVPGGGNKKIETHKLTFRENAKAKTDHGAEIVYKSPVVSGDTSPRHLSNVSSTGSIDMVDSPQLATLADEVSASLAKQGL
Experimental: Aggregation of 6-µM p-tau under the influence of 30 µM of each of the library compounds or a DMSO vehicle control was monitored in 384-well plates every 10 min for ThS fluorescence changes over 16 h. To assess the quality of the high-throughput p-tau aggregation reactions, we used the T0 and T16hr ThS fluorescence units of no-compound control reactions to calculate the Z′-factor and coefficient of variation (CV), two commonly used criteria for robustness of high-throughput screens (HTS)[62]. A Z′-factor greater than 0.5 and CV smaller than 10% indicate robustness. […] To identify compounds with significant p-tau aggregation modulation, the net change of ThS fluorescence was calculated from all reactions (see Supplemental Table 1 for complete listing).
Aggregation of 6 µM of p-tau was done in the presence of the indicated concentrations of either compound. […] P-tau aggregation reactions with the C291S C322S (C/S) mutant p-tau were done in the presence of the indicated amounts of either compound. Shown are net changes of ThS over 16 h.
Given the tremendous socioeconomical burdens of AD, measures that prevent or delay the onset of the devastating neurodegeneration of AD will be highly impactful. If hyperphosphorylated tau-inflicted neuronal damages are an underpinning for AD and other tauopathies, enhancers of p-tau aggregation (PTAEs) may be risk factors for neurodegeneration. […] Prednicarbate is a synthetic corticosteroid for dermatological use, and carmofur (1-hexylcarbamoyl-5-fluorouracil) is an anti-neoplastic pyrimidine analogue. […] BZDs are among the most widely prescribed medication, in particular to the elderly, for depression and insomnia[70],[71]. We hypothesized that certain BZDs acted as a PTAE to potentiate p-tau aggregation and cytotoxicity. […] We therefore randomly picked nine prescription BZDs for p-tau aggregation assessment (Fig. 6; see Supplemental Fig. 5 for chemical structures). To 6-µM p-tau aggregation reactions, increasing doses of each of these BZDs were added.
Prednicarbate, a synthetic steroid, served as a PTAE control (yellow bars).
The aggregation assays over the course of this project have been done with multi-plate readers from different sources.
A common mix of 6 µM p-tau, 20 mM Tris pH 7.4, 1 mM DTT, and 20 µM ThS was assembled and dispensed to 384-well low-volume plates (10 µl per well) using BioTek EL406 Washer, followed by the addition of 150 nl of the Prestwick Library compounds (final concentration of 30 µM per well) or DMSO in a Beckman Coulter Biomek FX^P workstation. Each plate was covered with an Optical Adhesive Film and incubated at 37 °C for about 10 min. ThS fluorescence was measured every 10 min at 440/490 nm for 16 h by Biotek Synergy Neo Plate Reader. […] The real-time kinetics of ThS signals were collected using Gen5 software.

K18 P301L = tested on: K18 P301L; set-up: method as in earlier work; conditions: 15 µM K18 P301L, 40 µM heparin; ref Probe Report ML103, National Center for Biotechnology Information, 2010; read-out: AC50 for tau aggregation inhibition; cited from earlier work
[2] = tested on: C291S C322S (C/S) and C291A C322A (C/A) mutant p-tau; assay: aggregation of C/S or C/A mutant p-tau (ThS net change); type: biochemical; conditions: increasing doses of compound
Experimental: Figure 3 R-(−)-apomorphine and raloxifene are p-tau aggregation inhibitors (PTAIs) that act independently of the redox state of p-tau. (a) and (b) P-tau aggregation inhibition dose response curves of R-(−)-apomorphine and raloxifene. Aggregation of 6 µM of p-tau was done in the presence of the indicated concentrations of either compound. (c) Both R-(−)-apomorphine and raloxifene act independently of the two cysteine residues of p-tau. P-tau aggregation reactions with the C291S C322S (C/S) mutant p-tau were done in the presence of the indicated amounts of either compound. Shown are net changes of ThS over 16 h.
Many “hits” from prior tau-based HTS were non-selective redox modulators, due most likely to the susceptibility of unmodified tau fibrils to the oxidation of two cysteine residues of tau, C291 and C322. Because p-tau aggregation was not affected by changing the two cysteine residues to alanine or serine, we suspected that R-(−)-apomorphine and raloxifene would act independently of these two cysteine. […] By itself, the C/S p-tau gained 130 units of ThS fluorescence over the course of the aggregation reaction (blue column). With increasing doses of either compound, the net gain of ThS fluorescence decreased progressively. […]

women = conditions: cited from earlier work
HEK293T cells = assay: intracellular fibril buildup and cell death after p-tau, ThS/PI double staining; type: cell-based; conditions: 15 µM compound added 24 h after p-tau
Experimental: Cells were harvested for ThS/PI staining after additional 24 or 48 h. ThS staining helped visualize intracellular fibrils. In this experiment, we used HEK293T cells to avoid potential interference from the endogenous tau. […] To gain a quantitative assessment, the numbers of the four possible combinations of ThS/PI staining were tallied.
(a) Experimental design. […] These images were from T24hr time point in panel (a) with 0.5 µM p-tau treatment. (c) Quantification of ThS and PI stainability among cells. Cells were categorized based on one of the four ThS/PI double-staining patterns. The total number of cells captured microscopically under each treatment was used as the denominator for the calculation of the proportion of each staining pattern, and expressed in this stacked column chart.
as §1

[3] = set-up: method as in PMID 21071476; conditions: cited from earlier work
3xTg mice = conditions: cited from earlier work
[4] = 50 or 200 µM compound, heparin-free
[5] = SH-SY5Y, p-tau pre-incubated with compound

In the case of COC(=O)C1=C(C)NC(C)=C(C(=O)OCC(C)C)C1c1ccccc1[N+](=O)[O-] (stereo not shown) [Nisoldipine, nisoldipine, reference compound], the p-tau cytotox (SH-SY5Y cells) is reported as “No change”, the “PTAI>3SD” value (1N4R p-tau) is reported as “*” and the ThS net change (1N4R p-tau) is reported as -29.
For COC1=C(OC)C(=O)C(CCCCCCCCCCO)=C(C)C1=O [Idebenone, idebenone], the bioavailability [1] is given as “very low bioavailability”, the “PTAI>3SD” value (1N4R p-tau) is given as “*” and the ThS net change (1N4R p-tau) is given as -1. For the same compound, the EC50 (p-tau) was 10.5 µM.
For CCOC(=O)c1nn(-c2ccccc2)c(=O)c2c(N)scc12 [compound 1], the AC50 (K18 P301L) is given as 3.3 ± 0.2 µM and the “effect on p-tau aggregation” value (p-tau; [4]) is given as “no effect on p-tau aggregation”.
With CC(C)/N=c1\cc2n(-c3ccc(Cl)cc3)c3ccccc3nc-2cc1Nc1ccc(Cl)cc1 [Clofazimine, clofazimine, reference compound] the p-tau cytotox (SH-SY5Y cells) was “No change”, the “PTAI>3SD” value (1N4R p-tau) was “*” and the ThS net change (1N4R p-tau) was -196. It also gave an EC50 (p-tau) of 68 µM.
With O=C1CN=C(c2ccccc2)c2cc([N+](=O)[O-])ccc2N1 [nitrazepam] the “effect on p-tau cytotoxicity (cell death curve, LD50)” value (“effect on p-tau cytotoxicity” for short) (SH-SY5Y cells; [5]) was “did not alter the cytotoxicity of p-tau at all” and the “effect on p-tau aggregation (16-h net change of ThS fluorescence)” value (p-tau) was “did not”.
In the case of NNc1nncc2ccccc12 [Hydralazine, hydralazine hydrochloride], the p-tau cytotox (SH-SY5Y cells) is reported as “No change” and the EC50 (p-tau) is reported as 21.8 µM.
In the case of O=C(c1ccc(OCCN2CCCCC2)cc1)c1c(-c2ccc(O)cc2)sc2cc(O)ccc12 [Raloxifene, raloxifene hydrochloride], the “aggregation of C/A or C/S mutant p-tau” value [2] is given as “effectively inhibited”, the EC50 (SH-SY5Y cells; SH-SY5Y) is given as 4.8 µM and the “risk of mild cognitive impairment (MCI)” value (women; 3-year trial, 5386 participants, 120 mg daily) is given as “reduced risks of mild cognitive impairment (MCI)”. The “benefit for AD treatment” value (women; 12-month trial, 42 women with late-onset AD of mild to moderate severity) was “no significant benefits”, the EC50 (p-tau) was 31.2 µM and the “effect on p-tau aggregation” value (p-tau; 50 µM compound) was “completely blocked p-tau aggregation”.
For Nc1scc2c(C(=O)O)nn(-c3ccccc3)c(=O)c12 [compound 2], the AC50 (K18 P301L) is listed as 6.8 ± 0.4 µM, the “p-tau aggregation reduced to” value (p-tau; 400 µM compound) is listed as 57% and the “p-tau aggregation reduced to” value (p-tau; 1 mM compound) is listed as 46%. For the same compound, the “effect on p-tau aggregation” value (p-tau; [4]) was “moderate inhibition”.
In the case of CN1CCc2cccc3c2[C@H]1Cc1ccc(O)c(O)c1-3 [Apomorphine, R-(−)-apomorphine hydrochloride], the “live cells with cytoplasmic ThS fluorescence” value (HEK293T cells; 48-h samples) is reported as 26%, the “PI (+) ThS (+) cells” value (HEK293T cells; harvested after additional 24 h) is reported as 61% and the “PI (+) ThS (+) cells” value (HEK293T cells; harvested after additional 48 h) is reported as 44%. The “aggregation of C/A or C/S mutant p-tau” value [2] was “effectively inhibited”, the EC50 (SH-SY5Y cells; SH-SY5Y) was 2.9 µM and the “blood brain barrier passage” value [3] was “can pass the blood brain barrier”. The “memory in 3xTg mice” value (3xTg mice) was “memory improvement” and the EC50 (p-tau) was 18.1 µM.
In the case of CCC(C)n1ncn(-c2ccc(N3CCN(c4ccc(OCC5COC(Cn6cncn6)(c6ccc(Cl)cc6Cl)O5)cc4)CC3)cc2)c1=O (stereo not shown) [Itraconazole, itraconazole, reference compound], the p-tau cytotox (SH-SY5Y cells) is reported as “No change”, the “PTAI>3SD” value (1N4R p-tau) is reported as “*” and the ThS net change (1N4R p-tau) is reported as -31. For the same compound, the EC50 (p-tau) was 10.6 µM.
In the case of CN1C(=O)[C@@H](NC(=O)c2cc3ccccc3[nH]2)N=C(c2ccccc2)c2ccccc21 [devazepide], the “effect on p-tau cytotoxicity” value (SH-SY5Y cells) is reported as “decreasing LD50” and the “effect on p-tau aggregation (16-h net change of ThS fluorescence)” value (p-tau) is reported as “enhanced p-tau aggregation in a dose-dependent manner”.
For O=C1CN=C(c2ccccc2)c2cc(Cl)ccc2N1CC1CC1 [prazepam], the “effect on p-tau cytotoxicity” value (SH-SY5Y cells; [5]) was “decreasing LD50” and the “effect on p-tau aggregation (16-h net change of ThS fluorescence)” value (p-tau) was “enhanced p-tau aggregation in a dose-dependent manner”.

From publication PMC7539012, “Hyperphosphorylated tau aggregation and cytotoxicity modulators screen identified prescription drugs linked to Alzheimer's disease and cognitive functions” (Scientific Reports, 2020)
